According to patent publication US20240425441A9, “MODULATORS OF LIPOXYGENASE AND CYCLOOXYGENASE ENZYME ACTIVITY” (Université de Moncton, priority 2016, published 2024):
Like-named read-outs stand apart in the source and are kept apart here. One block for each compound: values may come before it.

Key:
Format in all cases: cell-based
[1] = biological target: T1, 5-lipoxygenase (Homo sapiens (Human), UniProt P09917); assay: Stimulation of isolated PMN (neutrophils) for 5-LO products; conditions: ranges indicate confidence interval, read-out: PMN dose-response
Protocol: Briefly, blood was centrifuged at 300×g for 5 min at room temperature, plasma was collected and erythrocytes were removed after dextran sedimentation.
Isolated PMN (1×10^7 cells/mL) resuspended in Hank's balanced salt solution (HBSS, Lonza, Walkerville, MD) containing 1.6 mM CaCl2) were pre-incubated with test compounds for 5 min at 37° C. in the presence of 1 U/mL of adenosine deaminase. […] Reactions were stopped with the addition of 0.5 volume of cold MeOH:CH3CN (1:1) and 50 ng of PGB2 as internal standard, and samples were stored at −20° C. overnight for protein denaturation. […] Total 5-LO products quantified represents the sum of LTB4, its trans isomers, 20-COOH— and 20-OH-LTB4 and 5-hydroxyeicosatetraenoic acid.

[2] = biological target: T1, 5-lipoxygenase; assay: Stimulation of HEK293 cells stably transfected with 5-LO and FLAP; total 5-LO products by HPLC; conditions: HEK293 cells expressing 5-LO and FLAP; ranges indicate confidence interval; read-out: HEK Dose-response
Protocol: HEK293 cells were detached by trypsinization and re-suspended in Hank's balanced salt solution containing 1.6 mM CaCl2). Cells (1×10^6 cells/mL) were preincubated at 37° C. with the test compounds or their diluent for 5 minutes and were then stimulated at 37° C. with 10 μM ionophore A23187 and 10 μM AA for 15 min. Stimulations were stopped by adding 0.5 volumes of a methanol:acetonitrile (1:1) solution containing 100 ng/mL each of PGB2 and 19-OH-PGB2 as internal standards, and samples were then kept at −20° C. overnight for protein denaturation. […] Total 5-LO products quantified represents the sum of LTB4, its trans isomers and 5-hydroxyeicosatetraenoic acid.

[3] = biological target: T1, 5-lipoxygenase; assay: Ex vivo whole blood stimulation with zymosan; total 5-LO products; conditions: zymosan-stimulated whole blood; read-out: Whole blood dose-response
Protocol: Each compound or its diluent was added to heparinized blood obtained from healthy donors (1 mL) at the indicated concentration and incubated for 10 min at 37° C. in a water bath. Following incubations, 125 μL of 40 mg/mL opsonised zymosan was added to each sample, gently vortexed and incubated for 30 min at 37° C. Samples were then centrifuged for 10 min at 960×g at 4° C. Plasma, 350 μL, was removed and added to 1.2 ml of methanol:acetonitrile (1:1) and 50 ng of PGB2 as internal standard. Samples were left overnight at −20° C. for protein denaturation. […] Total 5-LO products quantified represents the sum of LTB4, its trans isomers, 20-COOH— and 20-OH-LTB4 and 5-hydroxyeicosatetraenoic acid.

[4] = biological target: COX-1 (Homo sapiens (Human), UniProt P23219); assay: COX-1 inhibitory activity in human platelets; conditions: read-out: Percent inhibition at 1 μM
[5] = biological target: COX-2 (Homo sapiens (Human), UniProt P35354); assay: COX-2 activity, products from LPS-primed human neutrophils; conditions: 100% no inhibition, 0% complete inhibition
[6] = read-out: % of control COX-2 activity, n = 1
[7] = read-out: % of control COX-2 activity, n = 2

Sequence of COX-1 (P23219 24-599): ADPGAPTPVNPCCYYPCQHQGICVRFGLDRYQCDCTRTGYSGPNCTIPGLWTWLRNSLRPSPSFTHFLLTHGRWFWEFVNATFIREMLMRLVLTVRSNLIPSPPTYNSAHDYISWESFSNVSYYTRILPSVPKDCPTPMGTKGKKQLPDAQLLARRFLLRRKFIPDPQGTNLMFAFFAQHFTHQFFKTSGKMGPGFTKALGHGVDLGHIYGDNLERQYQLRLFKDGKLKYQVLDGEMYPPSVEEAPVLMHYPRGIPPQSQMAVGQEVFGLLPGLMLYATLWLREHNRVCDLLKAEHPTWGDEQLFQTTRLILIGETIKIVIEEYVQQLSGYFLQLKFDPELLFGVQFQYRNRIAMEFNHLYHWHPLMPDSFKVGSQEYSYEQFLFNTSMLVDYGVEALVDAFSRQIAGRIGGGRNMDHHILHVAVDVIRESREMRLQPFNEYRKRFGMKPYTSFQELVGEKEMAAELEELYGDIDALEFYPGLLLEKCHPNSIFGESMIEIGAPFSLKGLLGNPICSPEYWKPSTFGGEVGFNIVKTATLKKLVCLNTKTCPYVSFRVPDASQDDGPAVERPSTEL
Sequence of COX-2 (P35354 18-604): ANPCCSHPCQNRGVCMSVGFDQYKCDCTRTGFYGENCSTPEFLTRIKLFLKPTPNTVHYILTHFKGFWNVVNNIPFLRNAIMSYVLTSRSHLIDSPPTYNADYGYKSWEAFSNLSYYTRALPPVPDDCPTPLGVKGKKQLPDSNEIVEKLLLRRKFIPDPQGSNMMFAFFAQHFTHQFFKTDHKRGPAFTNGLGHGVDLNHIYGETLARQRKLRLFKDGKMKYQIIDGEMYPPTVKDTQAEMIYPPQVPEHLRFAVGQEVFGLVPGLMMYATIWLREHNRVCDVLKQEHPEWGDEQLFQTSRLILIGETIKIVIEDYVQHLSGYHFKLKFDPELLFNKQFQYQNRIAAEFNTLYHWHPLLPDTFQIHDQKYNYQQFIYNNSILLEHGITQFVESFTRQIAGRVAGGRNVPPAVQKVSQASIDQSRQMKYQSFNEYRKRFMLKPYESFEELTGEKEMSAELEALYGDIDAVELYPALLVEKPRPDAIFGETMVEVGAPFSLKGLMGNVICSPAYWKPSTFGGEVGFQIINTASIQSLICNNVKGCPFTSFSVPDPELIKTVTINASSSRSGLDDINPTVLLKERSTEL
T1 sequence (P09917 whole entry): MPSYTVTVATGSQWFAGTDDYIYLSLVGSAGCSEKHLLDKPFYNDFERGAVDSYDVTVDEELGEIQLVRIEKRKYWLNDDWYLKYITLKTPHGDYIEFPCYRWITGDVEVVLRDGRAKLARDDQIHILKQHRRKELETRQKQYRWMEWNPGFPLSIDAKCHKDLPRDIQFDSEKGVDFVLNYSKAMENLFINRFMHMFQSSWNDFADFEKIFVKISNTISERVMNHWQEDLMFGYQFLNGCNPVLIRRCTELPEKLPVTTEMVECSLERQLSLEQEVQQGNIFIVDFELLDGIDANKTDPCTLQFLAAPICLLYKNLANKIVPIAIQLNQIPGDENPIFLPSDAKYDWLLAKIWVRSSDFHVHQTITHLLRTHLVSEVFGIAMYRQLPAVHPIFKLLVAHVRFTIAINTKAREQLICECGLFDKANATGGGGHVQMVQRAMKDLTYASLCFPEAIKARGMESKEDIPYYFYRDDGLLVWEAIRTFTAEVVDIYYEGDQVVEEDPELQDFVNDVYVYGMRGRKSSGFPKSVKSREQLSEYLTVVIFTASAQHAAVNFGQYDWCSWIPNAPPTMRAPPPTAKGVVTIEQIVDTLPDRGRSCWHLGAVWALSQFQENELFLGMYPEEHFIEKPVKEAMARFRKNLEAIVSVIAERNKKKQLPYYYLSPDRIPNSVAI

IC50 [1]: 760 nM
SMILES: O=C(C=Cc1ccc(O)c(O)c1)OCC=Cc1ccccc1 (stereo in doubt) [Compound 4, (E)-(Z)-3-phenylallyl 3-(3,4-dihydroxyphenyl)acrylate]

IC50 [1]: 840 to 1100 nM | IC50 [2]: 650 to 1200 nM | IC50 [3]: 3400 nM
SMILES: O=C(/C=C/c1ccc(O)c(O)c1)OCCc1ccccc1 [CAPE, caffeic acid phenethyl ester, reference compound]

IC50 [1]: 870 nM
SMILES: O=C(CCc1ccc(O)c(O)c1)OCCCCc1ccccc1 [Compound 1, 4-phenylbutyl 3-(3,4-dihydroxyphenyl)propanoate]

IC50 [1]: 860 nM | IC50 [3]: 2800 nM
SMILES: O=C(CCc1ccc(O)c(O)c1)OCCCCCc1ccccc1 [Compound 2, 5-phenylpentyl 3-(3,4-dihydroxyphenyl)propanoate]

IC50 [1]: 510 nM | IC50 [3]: 2400 nM
SMILES: O=C(CCc1ccc(O)c(O)c1)OCCCCCCc1ccccc1 [Compound 3, 6-phenylhexyl 3-(3,4-dihydroxyphenyl)propanoate]

IC50 [1]: 350 nM
SMILES: COc1cc(/C=C/C(=O)OCCCc2ccccc2)cc(OC)c1O [Compound 6, (E)-3-phenylpropyl 3-(4-hydroxy-3,5-dimethoxyphenyl)acrylate]

IC50 [1]: 860 nM
SMILES: C=C(C)CCOC(=O)/C=C/c1ccc(O)c(O)c1 [Compound 17, (E)-3-methylbut-3-en-1-yl 3-(3,4-dihydroxyphenyl)acrylate]

inhibition at 1 µM [4]: 37.2%
SMILES: O=C(/C=C/c1ccc(O)c(O)c1)OCCc1ccc(F)cc1 [Compound 20, (E)-4-fluorophenethyl 3-(3,4-dihydroxyphenyl)acrylate]

inhibition at 1 µM [4]: 44.6%
SMILES: Cc1ccc(CCOC(=O)/C=C/c2ccc(O)c(O)c2)cc1 [Compound 21, (E)-4-methylphenethyl 3-(3,4-dihydroxyphenyl)acrylate]

inhibition at 1 µM [4]: 39.6%
SMILES: COc1ccc(CCOC(=O)/C=C/c2ccc(O)c(O)c2)cc1 [Compound 22, (E)-4-methoxyphenethyl 3-(3,4-dihydroxyphenyl)acrylate]

remaining activity at 1 µM [5, 6]: 34.9% | remaining activity at 1 µM [5, 7]: 81.3% | remaining activity at 1 µM ([5]; read-out: Avg % of control): 58.1% | IC50 [1]: 590 to 820 nM
SMILES: O=C(/C=C/c1ccc(O)c(O)c1)OCCCc1ccccc1 [Compound 25, (E)-3-phenylpropyl 3-(3,4-dihydroxyphenyl)acrylate]

IC50 [1]: 720 nM
SMILES: O=C(/C=C/c1ccc(O)c(O)c1)OCC(c1ccccc1)c1ccccc1 [Compound 27, (E)-2,2-diphenylethyl 3-(3,4-dihydroxyphenyl)acrylate]

IC50 [1]: 1030 nM
SMILES: O=C(/C=C/c1ccc(O)c(O)c1)OC/C=C/c1ccccc1 [Compound 31, (E)-cinnamyl 3-(3,4-dihydroxyphenyl)acrylate]

remaining activity at 1 µM [5, 6]: 34.3% | remaining activity at 1 µM [5, 7]: 69% | remaining activity at 1 µM ([5]; read-out: Avg % of control): 51.6% | IC50 [1]: 1000 nM | inhibition at 1 µM [4]: 42%
SMILES: O=C(CCc1ccc(O)c(O)c1)OCCc1ccccc1 [Compound 32, phenethyl 3-(3,4-dihydroxyphenyl)propanoate]

remaining activity at 1 µM [5, 6]: 7.6% | remaining activity at 1 µM [5, 7]: 45.3% | remaining activity at 1 µM ([5]; read-out: Avg % of control): 26.4% | IC50 [1]: 890 nM
SMILES: O=C(CCc1ccc(O)c(O)c1)OCCCc1ccccc1 [Compound 33, 3-phenylpropyl 3-(3,4-dihydroxyphenyl)propanoate]

inhibition at 1 µM [4]: < 20%
SMILES: O=C(Cc1ccc(O)c(O)c1)OCCc1ccccc1 [Compound 34, phenethyl 2-(3,4-dihydroxyphenyl)acetate]

IC50 [1]: 790 nM
SMILES: O=C(Cc1ccc(O)c(O)c1)OCCCc1ccccc1 [Compound 35, 3-phenylpropyl 2-(3,4-dihydroxyphenyl)acetate]

inhibition at 1 µM [4]: < 20%
SMILES: O=C(OCCc1ccccc1)c1ccc(O)c(O)c1 [Compound 36, phenethyl 3,4-dihydroxybenzoate]

IC50 [1]: 790 nM | IC50 [3]: 2800 nM
SMILES: O=C(OCCc1ccccc1)c1cc(O)c(O)c(O)c1 [Compound 38, phenethyl 3,4,5-trihydroxybenzoate]

remaining activity at 1 µM [5, 6]: 62.9% | remaining activity at 1 µM [5, 7]: 90.2% | remaining activity at 1 µM ([5]; read-out: Avg % of control): 76.6% | IC50 [1]: 600 nM
SMILES: O=C(/C=C/c1ccc(O)c(O)c1)OCCCCc1ccccc1 [Compound 39, (E)-4-phenylbutyl 3-(3,4-dihydroxyphenyl)acrylate]

remaining activity at 1 µM [5, 6]: 37.8% | remaining activity at 1 µM [5, 7]: 86.4% | remaining activity at 1 µM ([5]; read-out: Avg % of control): 62.1% | IC50 [1]: 530 nM
SMILES: O=C(/C=C/c1ccc(O)c(O)c1)OCCCCCc1ccccc1 [Compound 40, (E)-5-phenylpentyl 3-(3,4-dihydroxyphenyl)acrylate]

IC50 [1]: 840 nM
SMILES: O=C(/C=C/c1ccc(O)c(O)c1)OCCCCCCc1ccccc1 [Compound 41, (E)-6-phenylhexyl 3-(3,4-dihydroxyphenyl)acrylate]

IC50 [1]: 300 nM
SMILES: COc1cc(/C=C/C(=O)OCCc2ccccc2)cc(OC)c1O [Compound 45, (E)-phenethyl 3-(4-hydroxy-3,5-dimethoxyphenyl)acrylate]

remaining activity at 1 µM [5, 6]: 103% | remaining activity at 1 µM [5, 7]: 101% | remaining activity at 1 µM ([5]; read-out: Avg % of control): 102% | IC50 [1]: 1600 nM
SMILES: O=C(/C=C/c1ccc(O)c(O)c1)NCCCc1ccccc1 [Compound 55, (E)-3-(3,4-dihydroxyphenyl)-N-(3-phenylpropyl)acrylamide]

IC50 [1]: 920 nM
SMILES: O=C(/C=C/c1ccc(O)c(O)c1)NCCCCc1ccccc1 [Compound 56, (E)-3-(3,4-dihydroxyphenyl)-N-(4-phenylbutyl)acrylamide]

IC50 [1]: 840 nM
SMILES: O=C(/C=C/c1ccc(O)c(O)c1)CCc1ccccc1 [Compound 59, (E)-1-(3,4-dihydroxyphenyl)-5-phenylpent-1-en-3-one]
